Assay results reported in ChEMBL document CHEMBL5465560, “Selectivity Literature for EUbOPEN Chemogenomic Library” (2024).
One block for each molecule: values may come before it.

Tests used:
[1] = target: T1, 3-phosphoinositide-dependent protein kinase 1 (Homo sapiens) (UniProt O15530); settings: at 10 µM
T1 sequence (whole entry): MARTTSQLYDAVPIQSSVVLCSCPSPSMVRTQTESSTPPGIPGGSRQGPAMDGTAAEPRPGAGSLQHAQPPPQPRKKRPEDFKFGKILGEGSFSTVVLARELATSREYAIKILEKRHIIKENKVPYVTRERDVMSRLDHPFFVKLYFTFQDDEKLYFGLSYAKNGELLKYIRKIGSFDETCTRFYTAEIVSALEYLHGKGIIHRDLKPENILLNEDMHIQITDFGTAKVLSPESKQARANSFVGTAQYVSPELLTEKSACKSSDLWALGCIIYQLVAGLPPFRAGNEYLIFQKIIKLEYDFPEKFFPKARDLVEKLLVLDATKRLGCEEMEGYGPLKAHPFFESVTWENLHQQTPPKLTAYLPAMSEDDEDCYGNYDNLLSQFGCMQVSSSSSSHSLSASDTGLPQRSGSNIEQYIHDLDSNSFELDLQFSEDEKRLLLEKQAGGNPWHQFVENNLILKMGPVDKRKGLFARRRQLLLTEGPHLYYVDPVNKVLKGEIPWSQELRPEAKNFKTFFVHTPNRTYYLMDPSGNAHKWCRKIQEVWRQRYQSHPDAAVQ

[2] = Selectivity interaction (Eurofins CEREP Diversity Profile (receptors and ion channels)) EUB0000279b NPY; settings: at 10 µM
[3] = tested on: Epidermal growth factor receptor (Homo sapiens), P00533 [L858R,T790M]; test: (§1) Selectivity interaction (KinomeScan (DiscoverX)) EUB0001619a EGFR; settings: at 1 µM
[4] = tested on: Epidermal growth factor receptor (Homo sapiens), P00533 [L861Q]; test: as §1; settings: at 1 µM
[5] = target: Epidermal growth factor receptor (Homo sapiens, UniProt P00533); test: as §1; settings: at 1 µM
[6] = tested on: Epidermal growth factor receptor (Homo sapiens), P00533 [L858R]; test: as §1; settings: at 1 µM
[7] = tested on: Epidermal growth factor receptor (Homo sapiens), P00533 [UNDEFINED MUTATION]; test: as §1; settings: at 1 µM
[8] = tested on: Epidermal growth factor receptor (Homo sapiens), P00533 [T790M]; test: as §1; settings: at 1 µM
[9] = tested on: Epidermal growth factor receptor (Homo sapiens), P00533 [G719C]; test: as §1; settings: at 1 µM
[10] = tested on: Epidermal growth factor receptor (Homo sapiens), P00533 [G719S]; test: as §1; settings: at 1 µM
[11] = target: Tyrosine-protein kinase SYK (Homo sapiens, UniProt P43405); test: Selectivity interaction (ActivX KiNativ screen (ex vivo kinase selectivity in human PBMCs)) EUB0001619a SYK; format: cell-based; settings: PBMC, at 1 µM
[12] = target: T2, Ephrin type-B receptor 4 (Homo sapiens) (UniProt P54760); test: Selectivity interaction (KinomeScan (DiscoverX)) EUB0000595a EPHB4; settings: at 10 µM
T2 sequence (whole entry): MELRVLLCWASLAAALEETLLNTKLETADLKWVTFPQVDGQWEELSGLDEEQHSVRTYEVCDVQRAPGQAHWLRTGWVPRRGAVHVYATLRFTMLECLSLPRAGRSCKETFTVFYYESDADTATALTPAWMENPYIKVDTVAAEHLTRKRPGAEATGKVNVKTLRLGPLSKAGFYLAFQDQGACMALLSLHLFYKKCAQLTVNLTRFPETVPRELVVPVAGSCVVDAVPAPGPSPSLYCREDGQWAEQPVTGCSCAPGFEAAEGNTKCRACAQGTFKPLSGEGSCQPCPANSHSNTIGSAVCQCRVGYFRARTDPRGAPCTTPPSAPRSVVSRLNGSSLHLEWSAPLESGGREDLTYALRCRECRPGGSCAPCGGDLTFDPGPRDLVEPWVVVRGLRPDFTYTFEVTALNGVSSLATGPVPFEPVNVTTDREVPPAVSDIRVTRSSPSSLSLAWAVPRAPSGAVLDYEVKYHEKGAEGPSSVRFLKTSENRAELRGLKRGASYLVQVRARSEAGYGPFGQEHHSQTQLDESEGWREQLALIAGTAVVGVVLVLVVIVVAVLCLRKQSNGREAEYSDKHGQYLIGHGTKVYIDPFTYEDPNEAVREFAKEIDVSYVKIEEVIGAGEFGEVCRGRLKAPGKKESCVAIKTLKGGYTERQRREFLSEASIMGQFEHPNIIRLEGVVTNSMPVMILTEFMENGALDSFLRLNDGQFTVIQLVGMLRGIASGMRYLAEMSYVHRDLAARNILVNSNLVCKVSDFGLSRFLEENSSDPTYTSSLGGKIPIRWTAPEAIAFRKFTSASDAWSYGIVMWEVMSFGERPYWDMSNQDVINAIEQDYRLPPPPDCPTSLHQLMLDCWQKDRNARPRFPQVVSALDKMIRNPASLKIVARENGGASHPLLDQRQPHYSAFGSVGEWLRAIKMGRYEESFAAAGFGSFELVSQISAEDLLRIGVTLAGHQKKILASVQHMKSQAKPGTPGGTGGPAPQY

[13] = target: Dual specificity tyrosine-phosphorylation-regulated kinase 1A (Homo sapiens, UniProt Q13627); settings: at 10 µM
[14] = target: DNA (cytosine-5)-methyltransferase 3A (Homo sapiens) (UniProt Q9Y6K1); test: Selectivity interaction (Transferase panel (protein, RNA, and DNA methyltransferases. and EP300 (acetyltransferase))) EUB0000270b DNMT3A
[15] = target: Misshapen-like kinase 1 (Homo sapiens, UniProt Q8N4C8); test: Selectivity interaction (KinomeScan (DiscoverX)) EUB0000229b MINK1; settings: at 10 µM
[16] = target: Serine/threonine-protein kinase mTOR (Homo sapiens, UniProt P42345); test: Selectivity interaction (ProQinase) EUB0000171b MTOR
[17] = target: Tyrosine-protein kinase Lyn (Homo sapiens, UniProt P07948); test: Selectivity interaction (ProQinase) EUB0000171b LYN
[18] = target: Serine/threonine-protein kinase 32A (Homo sapiens) (UniProt Q8WU08); test: Selectivity interaction (KinomeScan (DiscoverX)) EUB0000092b STK32A; settings: at 10 µM
[19] = target: Serine/threonine-protein kinase pim-1 (Homo sapiens, UniProt P11309); test: Selectivity interaction (Kinase panel (Z-LYTE Assay)) EUB0001632a PIM1; settings: at 10 µM
Chain of Serine/threonine-protein kinase pim-1 (P11309 whole entry, looked up): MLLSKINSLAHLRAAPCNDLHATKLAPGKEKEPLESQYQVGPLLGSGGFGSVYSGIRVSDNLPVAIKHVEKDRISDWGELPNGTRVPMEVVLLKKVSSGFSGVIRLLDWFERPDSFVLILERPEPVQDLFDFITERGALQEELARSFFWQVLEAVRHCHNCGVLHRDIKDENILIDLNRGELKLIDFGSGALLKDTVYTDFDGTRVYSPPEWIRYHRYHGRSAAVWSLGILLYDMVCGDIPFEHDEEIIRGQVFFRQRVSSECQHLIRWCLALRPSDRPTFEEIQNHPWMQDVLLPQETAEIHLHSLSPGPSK

Chain of DNA (cytosine-5)-methyltransferase 3A (Homo sapiens) (Q9Y6K1 whole entry, looked up): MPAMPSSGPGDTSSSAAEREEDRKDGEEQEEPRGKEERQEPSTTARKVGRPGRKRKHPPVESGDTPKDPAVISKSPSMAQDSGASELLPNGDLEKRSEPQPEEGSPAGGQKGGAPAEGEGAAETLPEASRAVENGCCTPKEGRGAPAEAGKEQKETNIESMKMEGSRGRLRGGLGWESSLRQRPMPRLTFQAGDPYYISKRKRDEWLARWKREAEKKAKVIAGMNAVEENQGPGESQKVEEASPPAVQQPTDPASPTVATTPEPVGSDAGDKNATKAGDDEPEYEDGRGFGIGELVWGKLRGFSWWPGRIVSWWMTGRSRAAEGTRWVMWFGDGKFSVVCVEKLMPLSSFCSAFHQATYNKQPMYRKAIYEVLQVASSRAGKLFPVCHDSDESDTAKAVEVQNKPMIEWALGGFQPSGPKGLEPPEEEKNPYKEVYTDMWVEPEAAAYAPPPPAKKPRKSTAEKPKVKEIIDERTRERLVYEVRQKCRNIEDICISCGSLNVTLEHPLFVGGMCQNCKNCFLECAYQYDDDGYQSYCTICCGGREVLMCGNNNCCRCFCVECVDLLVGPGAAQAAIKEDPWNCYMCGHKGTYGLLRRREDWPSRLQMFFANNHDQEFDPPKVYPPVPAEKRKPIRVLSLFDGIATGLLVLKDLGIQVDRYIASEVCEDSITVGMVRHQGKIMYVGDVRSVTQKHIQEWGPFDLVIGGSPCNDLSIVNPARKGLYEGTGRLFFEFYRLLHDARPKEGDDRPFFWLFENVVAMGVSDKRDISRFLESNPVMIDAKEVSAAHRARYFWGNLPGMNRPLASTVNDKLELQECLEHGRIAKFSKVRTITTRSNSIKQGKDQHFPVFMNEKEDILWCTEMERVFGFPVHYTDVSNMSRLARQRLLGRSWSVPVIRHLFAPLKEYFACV
Chain of Tyrosine-protein kinase Lyn (P07948 2-512 limits assumed): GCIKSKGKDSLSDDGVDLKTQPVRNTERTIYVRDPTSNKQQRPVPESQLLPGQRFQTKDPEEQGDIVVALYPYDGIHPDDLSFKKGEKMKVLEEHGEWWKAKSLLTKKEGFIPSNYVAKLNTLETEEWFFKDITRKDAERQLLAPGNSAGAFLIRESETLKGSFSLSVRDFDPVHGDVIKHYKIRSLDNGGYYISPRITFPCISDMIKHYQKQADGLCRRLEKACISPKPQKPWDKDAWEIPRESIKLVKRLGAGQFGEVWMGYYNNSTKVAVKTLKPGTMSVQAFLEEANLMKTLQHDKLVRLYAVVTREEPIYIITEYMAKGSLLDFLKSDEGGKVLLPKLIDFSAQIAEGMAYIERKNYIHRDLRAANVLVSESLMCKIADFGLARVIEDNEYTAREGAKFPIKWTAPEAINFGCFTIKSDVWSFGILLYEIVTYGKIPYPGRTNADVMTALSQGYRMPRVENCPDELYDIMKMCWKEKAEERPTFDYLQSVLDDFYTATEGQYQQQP
Chain of Epidermal growth factor receptor (Homo sapiens), P00533 [G719S] (P00533 whole entry G719S): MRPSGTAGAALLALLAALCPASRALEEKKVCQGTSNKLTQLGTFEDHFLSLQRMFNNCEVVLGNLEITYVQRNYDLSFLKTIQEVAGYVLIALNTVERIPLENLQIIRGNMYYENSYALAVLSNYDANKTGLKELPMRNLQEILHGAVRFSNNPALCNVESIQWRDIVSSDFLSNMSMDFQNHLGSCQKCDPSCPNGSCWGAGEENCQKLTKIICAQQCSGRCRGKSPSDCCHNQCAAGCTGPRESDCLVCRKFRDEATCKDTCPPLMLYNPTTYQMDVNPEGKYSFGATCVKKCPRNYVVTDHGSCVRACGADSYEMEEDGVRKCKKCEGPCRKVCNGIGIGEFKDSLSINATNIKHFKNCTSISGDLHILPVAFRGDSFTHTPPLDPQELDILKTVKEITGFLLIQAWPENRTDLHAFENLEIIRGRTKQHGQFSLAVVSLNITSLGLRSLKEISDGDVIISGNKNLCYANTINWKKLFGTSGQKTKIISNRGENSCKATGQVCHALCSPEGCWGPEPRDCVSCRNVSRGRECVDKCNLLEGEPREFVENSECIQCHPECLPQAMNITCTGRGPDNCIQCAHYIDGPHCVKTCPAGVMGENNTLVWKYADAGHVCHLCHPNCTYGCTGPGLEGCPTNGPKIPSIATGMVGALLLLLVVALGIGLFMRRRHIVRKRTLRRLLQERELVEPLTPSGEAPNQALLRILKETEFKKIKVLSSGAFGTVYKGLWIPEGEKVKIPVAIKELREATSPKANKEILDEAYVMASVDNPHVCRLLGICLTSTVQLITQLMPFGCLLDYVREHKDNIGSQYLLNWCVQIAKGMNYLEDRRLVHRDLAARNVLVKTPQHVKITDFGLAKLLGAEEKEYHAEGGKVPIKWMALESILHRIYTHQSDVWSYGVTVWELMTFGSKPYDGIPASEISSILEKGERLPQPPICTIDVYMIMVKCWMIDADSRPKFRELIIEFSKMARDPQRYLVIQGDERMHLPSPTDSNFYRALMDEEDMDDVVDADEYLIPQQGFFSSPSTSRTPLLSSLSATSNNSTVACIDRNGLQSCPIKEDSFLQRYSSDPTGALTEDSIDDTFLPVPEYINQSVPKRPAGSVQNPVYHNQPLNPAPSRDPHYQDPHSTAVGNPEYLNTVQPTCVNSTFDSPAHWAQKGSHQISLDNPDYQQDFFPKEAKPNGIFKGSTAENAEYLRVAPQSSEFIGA
Chain of Misshapen-like kinase 1 (Q8N4C8 whole entry, looked up): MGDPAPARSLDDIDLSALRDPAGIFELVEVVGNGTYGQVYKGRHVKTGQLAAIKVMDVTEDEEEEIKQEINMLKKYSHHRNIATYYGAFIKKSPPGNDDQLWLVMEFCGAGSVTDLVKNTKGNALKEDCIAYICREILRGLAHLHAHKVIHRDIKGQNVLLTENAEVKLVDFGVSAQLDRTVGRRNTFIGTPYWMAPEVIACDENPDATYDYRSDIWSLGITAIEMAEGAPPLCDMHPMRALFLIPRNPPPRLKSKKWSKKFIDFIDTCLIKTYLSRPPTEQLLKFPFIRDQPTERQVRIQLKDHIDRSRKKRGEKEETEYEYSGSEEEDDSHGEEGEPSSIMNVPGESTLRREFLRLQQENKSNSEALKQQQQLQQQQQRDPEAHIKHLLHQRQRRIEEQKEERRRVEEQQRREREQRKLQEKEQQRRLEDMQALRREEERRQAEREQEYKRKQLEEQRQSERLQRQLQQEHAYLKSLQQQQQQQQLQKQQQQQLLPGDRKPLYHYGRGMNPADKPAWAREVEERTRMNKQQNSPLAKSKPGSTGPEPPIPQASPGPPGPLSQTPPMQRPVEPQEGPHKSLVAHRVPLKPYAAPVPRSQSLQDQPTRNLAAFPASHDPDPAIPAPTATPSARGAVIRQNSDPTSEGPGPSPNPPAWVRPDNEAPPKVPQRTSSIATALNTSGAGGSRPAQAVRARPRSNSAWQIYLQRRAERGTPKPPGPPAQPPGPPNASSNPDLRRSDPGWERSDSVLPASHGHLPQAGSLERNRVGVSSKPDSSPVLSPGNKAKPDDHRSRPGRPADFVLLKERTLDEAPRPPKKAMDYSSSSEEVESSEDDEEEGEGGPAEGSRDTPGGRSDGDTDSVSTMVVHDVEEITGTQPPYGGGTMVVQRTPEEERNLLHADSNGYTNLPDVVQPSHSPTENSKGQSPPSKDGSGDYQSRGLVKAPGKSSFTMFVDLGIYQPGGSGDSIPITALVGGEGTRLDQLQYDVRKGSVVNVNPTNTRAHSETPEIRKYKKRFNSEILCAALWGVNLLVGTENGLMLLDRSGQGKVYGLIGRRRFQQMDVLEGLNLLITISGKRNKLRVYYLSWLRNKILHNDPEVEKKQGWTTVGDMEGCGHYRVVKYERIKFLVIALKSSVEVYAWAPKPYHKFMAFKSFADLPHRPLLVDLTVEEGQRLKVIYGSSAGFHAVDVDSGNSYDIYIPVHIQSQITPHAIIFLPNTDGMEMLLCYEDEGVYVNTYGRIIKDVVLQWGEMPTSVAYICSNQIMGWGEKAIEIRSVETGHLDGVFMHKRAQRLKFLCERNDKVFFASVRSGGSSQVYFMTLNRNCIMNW
Chain of Serine/threonine-protein kinase 32A (Homo sapiens) (Q8WU08 whole entry): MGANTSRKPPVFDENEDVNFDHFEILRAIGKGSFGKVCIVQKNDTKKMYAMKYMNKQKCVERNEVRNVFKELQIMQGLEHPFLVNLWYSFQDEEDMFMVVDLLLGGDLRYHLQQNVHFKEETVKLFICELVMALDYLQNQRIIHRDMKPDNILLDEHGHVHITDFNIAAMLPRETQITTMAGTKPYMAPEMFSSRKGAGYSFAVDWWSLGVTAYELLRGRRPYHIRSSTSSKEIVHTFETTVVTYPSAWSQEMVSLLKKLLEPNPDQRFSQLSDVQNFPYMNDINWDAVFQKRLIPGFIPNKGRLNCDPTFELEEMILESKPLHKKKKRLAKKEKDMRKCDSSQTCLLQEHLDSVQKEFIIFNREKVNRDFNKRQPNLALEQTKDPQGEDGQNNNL

SMILES: N#Cc1cccc(-c2c[nH]c3ncnc(N4CCOCC4)c23)c1
% of control [3]: 100%
% of control [4]: 86%
% of control [5]: 100%
% of control [6]: 78%
% of control [7]: 77%
% of control [8]: 81%
% of control [9]: 84%
% of control [10]: 100%
% of inhibition [11]: -12%

SMILES: COCC(=O)NC/C=C/c1ccc2ncnc(Nc3ccc(Oc4ccc(C)nc4)c(C)c3)c2c1 [CP-724714]
% of control [12]: 95%

SMILES: Cc1cc([C@@H](C)Nc2ccccc2C(=O)O)c2nc(N3CCOCC3)cc(=O)n2c1 [AZD-6482]
% of control [13]: 90%

SMILES: COc1cc(N(C)c2ccnc3ccc(C(F)(F)F)cc23)cc(OC)c1OC
% binding [15]: 68%

SMILES: CCC(=O)N1CCN(c2ccc(-n3c(=O)ccc4cnc5ccc(-c6cnc7ccccc7c6)cc5c43)cc2C(F)(F)F)CC1
% of control [18]: 100%

The next lines start with the values.

% of control [1]: 100%
SMILES: CCN(CC)CCCCNc1ncc2cc(-c3cc(OC)cc(OC)c3)c(NC(=O)NC(C)(C)C)nc2n1

% of control [2]: 123%
SMILES: CC(=O)c1cc(-c2ccccc2OCC2CC2)c2ncccn12

% activity ([14]; at 1 µM): > 90%
% activity ([14]; at 10 µM): > 80%
SMILES: Cc1cc(CN)cc(C)c1-c1ncn(C)c1-c1cncn1C

% of control ([16]; at 1 µM): 88%
% of control ([16]; at 5 µM): 91%
% of control ([17]; at 1 µM): 99%
% of control ([17]; at 5 µM): 94%
SMILES: C=CC(=O)Nc1cccc(C(=O)Nc2ccc(Nc3cc(-c4[nH]c(SC)nc4C)ccn3)cc2)c1

% of control [19]: -1.78%
SMILES: Cn1cc(-n2cnc3c(NCc4nc5cc(Cl)c(Cl)cc5[nH]4)nc(N4CCOCC4)nc32)cn1
